Experimental data as given in US20180312473A1, “PHENAZINE DERIVATIVES AS ANTIMICROBIAL AGENTS” (priority 2015, published 2018).
In brackets after ≈: the same amount, converted by molar mass. Where two headings read alike, the source gives them in different places. Marks after values point to notes of the source that are not given here.

Legend:
[1] = tested on: Enterococcus faecium (ATCC 700221), VRE; assay: MIC assay (broth microdilution, CLSI); type: cell-based
[2] = tested on: MRSA-2 (methicillin-resistant Staphylococcus aureus clinical isolate); assay: MIC assay (broth microdilution, CLSI); type: cell-based; settings: Staphylococcus aureus, MRSA, read-out: MIC, MRSA-2
[3] = tested on: Staphylococcus epidermidis (ATCC 12228); assay: MIC assay (broth microdilution, CLSI); type: cell-based; settings: Staphylococcus epidermidis, ATCC12228
[4] = tested on: MRSA-1 (methicillin-resistant Staphylococcus aureus clinical isolate); assay: MIC assay (broth microdilution, CLSI); type: cell-based; settings: Staphylococcus aureus, MRSA, Table 2A; read-out: MIC, MRSA-1
[5] = tested on: MRSE (S. epidermidis ATCC 35984) planktonic cells and biofilms; assay: Calgary Biofilm Device (CBD) assay, MBC/MBEC; type: cell-based, Staphylococcus epidermidis; settings: for MBC: Staphylococcus epidermidis
human red blood cells = assay: Hemolysis assay with red blood cells; settings: human, 1 h, 200 μM, pH 7.2
Experimental: The hemolysis activities of select compounds of the invention were determined. […] The washing was repeated three times with the buffer. In 96-well plate, test compounds were added to the buffer from DMSO stocks. […] The plate was then incubated for 1 hour at 37° C. After incubation, the plate was centrifuged for 5 minutes at 3,500 rpm. Then 80 μL of the supernatant was transferred to another 96-well plate, and the optical density (OD) was read at 405 nm. DMSO served as the negative control (0% hemolysis), while Triton X served as the positive control (100% hemolysis). The percent of hemolysis was calculated as (OD405 of the compound−OD405 of DMSO)/(OD405 of Triton X−OD405 of the buffer).
The washing was repeated three times with the buffer. In 96-well plate, test compounds were added to the buffer from DMSO stocks. […] The plate was then incubated for 1 hour at 37° C. After incubation, the plate was centrifuged for 5 minutes at 3,500 rpm. Then 80 μL of the supernatant was transferred to another 96-well plate and the optical density (OD) was read at 405 nm. DMSO served as our negative control (0% hemolysis) while Triton X served as our positive control (100% hemolysis). The percent of hemolysis was calculated as (OD405 of the test compound−OD405 DMSO)/(OD405 Triton X−OD405 buffer) from three independent experiments.

MRSA BAA-44 = assay: MIC assay (broth microdilution, CLSI); settings: Staphylococcus aureus, read-out: MIC, MRSA BAA-44
[6] = tested on: Staphylococcus epidermidis (ATCC 35984), MRSE; assay: MIC assay (broth microdilution, CLSI); type: cell-based; settings: for MIC: Staphylococcus epidermidis
MRSA-2 = assay: MIC assay with Tiron or metal(II) cation co-treatment; type: cell-based, Staphylococcus aureus; settings: Staphylococcus aureus
E. faecium 700221 (VRE) = assay: as above; type: cell-based, Enterococcus faecium; settings: Enterococcus faecium, VRE
[7] = tested on: MRSA-2 planktonic cells and biofilms; assay: Calgary Biofilm Device (CBD) assay, MBC/MBEC; type: cell-based, Staphylococcus aureus; settings: for MBC: Staphylococcus aureus, MRSA
S. epidermidis 12228 = assay: MIC assay with Tiron or metal(II) cation co-treatment; type: cell-based, Staphylococcus epidermidis; settings: Staphylococcus epidermidis
HeLa cells = assay: in vitro; type: cell-based; settings: human, 24 h
Experimental: (§1) The cytotoxicities of select compounds of the invention against HeLa cells were determined. HeLa cytotoxicity was assessed using the LDH release assay described by CYTOTOX96 (Promega G1780). HeLa cells were grown in Dulbecco's Modified Eagle Medium (DMEM; Gibco) supplemented with 10% Fetal Bovine Serum (FBS) at 37° C. with 5% CO2. […] Triton X-100 (at 2% v/v) was used as the positive control for maximum lactate dehydrogenate (LDH) activity in this assay (e.g., complete cell death), while “medium only” lanes served as negative control lanes (e.g., no cell death). DMSO was used as the vehicle control. […] Finally, Stop Solution (50 μL) was added to the incubating plates, and the absorbance was measured at 490 nm.
(§2) HeLa cytotoxicity was assessed using the LDH release assay described by CYTOTOX96 (Promega G1780). HeLa cells were grown in Dulbecco's Modified Eagle Medium (DMEM; Gibco) supplemented with 10% Fetal Bovine Serum (FBS) at 37° C. with 5% CO2. […] Triton X-100 (at 2% v/v) was used as the positive control for maximum lactate dehydrogenate (LDH) activity in this assay (e.g., complete cell death), while “medium only” lanes served as negative control lanes (e.g., no cell death). DMSO was used as our vehicle control. […] Finally, Stop Solution (50 μL) was added to the incubating plates and the absorbance was measured at 490 nm. Results are from three independent experiments (FIG. 19)

in vitro = type: cell-based; settings: human
Experimental: as §1, §2

K. pneumoniae 13883 = assay: MIC assay (broth microdilution, CLSI); type: cell-based, Klebsiella pneumoniae; settings: Klebsiella pneumoniae, 13883; read-out: K. pneumoniae 13883 MIC
A. baumannii 19606 = assay: MIC assay (broth microdilution, CLSI); type: cell-based, Acinetobacter baumannii; settings: Acinetobacter baumannii, 19606; read-out: A. baumannii 19606 MIC
P. aeruginosa (PAO1) = assay: MIC assay (broth microdilution, CLSI); type: cell-based; settings: Pseudomonas aeruginosa, PAO1; read-out: PAO1 MIC
E. coli UAEC-1 = assay: MIC assay (broth microdilution, CLSI); type: cell-based; settings: Escherichia coli, UAEC1; read-out: E. coli UAEC-1 MIC
MRSA BAA-1707 = assay: MIC assay (broth microdilution, CLSI); settings: Staphylococcus aureus, read-out: MIC, MRSA BAA-1707
[8] = Table 7, b lowest concentration tested, read-out: MIC, VRE 700221
[9] = Table 7, a midpoint of 2-fold range, b lowest concentration tested
[10] = Table 7, b lowest concentration tested, read-out: MIC, S. epidermidis 12228
[11] = Table 2A, read-out: MIC, Staphylococcus epidermidis (ATCC 35984)
[12] = Table 7, read-out: MIC, MRSE 35984
[13] = Table 8, a/b 2-/4-fold range in independent experiments, read-out: MRSA-2 MBC
[14] = Enterococcus faecium, Table 2A, read-out: MIC, Enterococcus faecium (ATCC 700221)
[15] = Table 2A, read-out: MIC, Staphylococcus epidermidis (ATCC 12228)

SMILES | melting point | MIC [1, 8] | MIC [2, 9] | MIC [3, 10] | MIC [4] | % Hemolysis (200 μM) (human red blood cells) | % Hemolysis at 200 μM (human red blood cells) | MIC (MRSA BAA-44) | MIC [6, 11] | MIC [6, 12] | MBC ([7]; Table 4, read-out: MBC, MRSA-2) | MBC [7, 13] | MIC [1, 14] | MIC ([2]; Table 2A) | IC50 (HeLa cells) | IC50 at 24 h (in vitro) | MIC [3, 15] | MIC (MRSA BAA-1707) | MBEC:MBC ratio, MRSA-2 ([7]; Table 4) | other results
C=CCc1cc(Br)c2nc3cc(Br)c(Br)cc3nc2c1O [Compound 24, 2-Allyl-4,7,8-tribromo-1-hydroxyphenazine] | 187 to 189 °C | > 100 µM | > 100 µM | > 100 µM |  |  |  |  |  |  |  |  |  |  |  |  |  |  |  | 
Oc1c(Cl)cc(Br)c2nc3cc(Br)c(Br)cc3nc12 [Compound 15, 4,7,8-Tribromo-2-chloro-1-hydroxyphenazine] | 242 to 244 °C | 0.39 µM (≈ 0.182 µg/mL) | 12.5 µM (≈ 5.84 µg/mL) | 0.08 µM (≈ 0.0374 µg/mL) | 6.25 µM (≈ 2.92 µg/mL) | 2.1% | 2.1% | 25 µM (≈ 11.7 µg/mL) | 0.2 to 0.39 µM (≈ 0.0935 to 0.182 µg/mL) | 0.3 to 0.59 µM (≈ 0.14 to 0.276 µg/mL) | 25 µM (≈ 11.7 µg/mL) | 25 µM (≈ 11.7 µg/mL) | 0.39 µM (≈ 0.182 µg/mL) | 12.5 µM (≈ 5.84 µg/mL) | > 100 µM | > 100 µM | 0.05 to 0.1 µM (≈ 0.0234 to 0.0467 µg/mL) |  |  | MBC ([5]; Table 4, read-out: MBC, Staphylococcus epidermidis (ATCC 35984)): 1.56 µM (≈ 0.729 µg/mL); MBC ([5]; Table 8, read-out: MRSE 35984 MBC): 1.56 µM (≈ 0.729 µg/mL); MBEC, Staphylococcus epidermidis (ATCC 35984) ([5]; Table 4): 3.13 µM; MIC, MRSE 35984 ([6]; Table 7): 0.30^a μM; MIC (MRSA-2; MRSA-2, 200 μM copper(II), read-out: MIC with Cu^2+): > 100 µM; MIC (MRSA-2; MRSA-2, 1 mM Tiron, read-out: MIC with Tiron): 0.2 µM; MIC (MRSA-2; MRSA-2, no additive (Table 9), read-out: MIC): 3.13 µM; MIC (E. faecium 700221 (VRE); E. faecium 700221, 200 μM CuSO4, read-out: MIC with Cu^2+): 12.5 µM; MIC (E. faecium 700221 (VRE); E. faecium 700221, 1 mM Tiron, read-out: MIC with Tiron): 0.78 µM; MIC (E. faecium 700221 (VRE); E. faecium 700221, no additive, read-out: MIC): 0.78 µM; MIC (S. epidermidis 12228; S. epidermidis 12228, 200 μM CuSO4, read-out: MIC with Cu^2+): 50 µM; MIC (S. epidermidis 12228; S. epidermidis 12228, 1 mM Tiron, read-out: MIC with Tiron): 0.1 µM; MIC (S. epidermidis 12228; S. epidermidis 12228, no additive, read-out: MIC): 0.1 µM
COc1cccc2nc3cc(Cl)c(Cl)cc3nc12 [Compound 20, 7,8-Dichloro-1-methoxyphenazine] |  | > 100 µM | > 100 µM | > 100 µM |  | 1.5% |  |  | > 100 µM | > 100 µM |  |  | > 100 µM | > 100 µM |  |  | > 100 µM |  |  | MIC (K. pneumoniae 13883): > 100 µM; MIC (A. baumannii 19606): > 100 µM; MIC (P. aeruginosa (PAO1)): > 100 µM; MIC (E. coli UAEC-1): > 100 µM
Oc1c(Cl)cc(Cl)c2nc3ccccc3nc12 [Compound 3, 2,4-Dichloro-1-hydroxyphenazine] | 205 to 207 °C | 12.5 µM (≈ 3.31 µg/mL) | 3.13 µM (≈ 0.83 µg/mL) | 3.13 µM (≈ 0.83 µg/mL) | 3.13 µM (≈ 0.83 µg/mL) | ≤1% | ≤1% | 3.13 µM (≈ 0.83 µg/mL) | 3.13 µM (≈ 0.83 µg/mL) | 3.13 µM (≈ 0.83 µg/mL) | 62.5 µM (≈ 16.6 µg/mL) | 62.5 µM (≈ 16.6 µg/mL) | 12.5 µM (≈ 3.31 µg/mL) | 3.13 µM (≈ 0.83 µg/mL) |  |  | 3.13 µM (≈ 0.83 µg/mL) | 3.13 µM (≈ 0.83 µg/mL) | >16.0 | 
Oc1c(Cl)cc(I)c2nc3ccccc3nc12 [Compound 6, 2-Chloro-4-iodo-1-hydroxyphenazine] | 183 to 185 °C | 6.25 µM (≈ 2.23 µg/mL) | 1.56 µM (≈ 0.556 µg/mL) | 1.56 µM (≈ 0.556 µg/mL) | 1.56 µM (≈ 0.556 µg/mL) | 5.1% |  | 1.56 µM (≈ 0.556 µg/mL) | 1.56 µM (≈ 0.556 µg/mL) | 1.56 µM (≈ 0.556 µg/mL) | 15.6 µM (≈ 5.56 µg/mL) | 15.6 µM (≈ 5.56 µg/mL) | 6.25 µM (≈ 2.23 µg/mL) | 1.56 µM (≈ 0.556 µg/mL) | > 100 µM | > 100 µM | 1.56 µM (≈ 0.556 µg/mL) | 1.56 µM (≈ 0.556 µg/mL) | 8.0 | 
